Source: US9815878B2, “Use of PEDF-derived polypeptides for preventing and/or ameliorating skin aging” (MacKay Memorial Hospital, priority 2012, dated 2017)
No end group written: not given here.

Assays:
[1] = tested on: primary mouse dermal fibroblasts; experiment: Dermal fibroblast proliferation in vitro, BrdU labeling assay; type: cell-based, C57BL/6 mouse; details: 24 hours; for BrdU/Vimentin Labeling Index (%): 50 nM peptide in 1% FBS medium, BrdU 2 hours
Description: (§1) Full-thickness skin tissue was obtained from the dorsum of C57BL/6 mouse. The subcutaneous tissue was carefully dissected from the skin and washed three times in sterile phosphate-buffered saline (PBS). The tissue was then cut into small pieces (1-2 mm^3). After being digested with 0.1% dispase at 4° C. overnight, the epidermal layers were removed, and the remaining dermal parts were further digested with 0.1% collagenase I at 37° C. for another 4 hours. The digested cells were then collected by centrifugation (400 g for 5 minutes) and resuspended in high-glucose DMEM supplemented with 10% FBS, 2 mM L-glutamine, and 1% penicillin-streptomycin antibiotic mixture. Cells were seeded onto tissue-culture plates (Falcon Labware; NJ, USA) at 1×10^3 cells/cm^2 and maintained at 37° C. with 5% CO2. After 24 hours, the medium was discarded to remove residual non-adherent cells, and cell culture was replenished with a fresh medium. For passage, near-confluent cells were harvested with 0.25% trypsin/EDTA.
After fixing with 4% paraformaldehyde, cells were exposed to cold methanol for 2 minutes, and then treated with 1 N HCl at room temperature for 1 hour before performing immunofluorescence staining.
BrdU-labeled DNA was detected by polyclonal anti-BrdU antibody and rhodamine-conjugated donkey anti-rabbit IgG. Nuclei were counterstained with Hoechst 33258 (blue).
Primary mouse dermal fibroblasts were isolated and cultured as described in the “Materials and Methods” section. The dermal fibroblast at passage 2 were seeded at gelatin-coated slide in a 6-well plate at a density of 2×10^5 cells per well and cultured in growth medium (DMEM 10% FBS) for 24 hours before being replaced by a basal growth medium with 1% FBS only (control group) or with 1% FBS plus an additional 50 nM of PEDF-derived peptide (i.e., 29-mer, 24-mer, 20-mer, 18-mer, Mo 29-mer, or Mo 20-mer) for 24 hours. For BrdU labeling assay, BrdU (final concentration, 10 μM) was added to the culture for 2 hours. The level of BrdU- and vimentin-double positive cells was expressed as the percentage of BrdU- and vimentin-double positive cells per total vimentin-positive cells (the BrdU/Vimentin Labeling Index), and the results were summarized in Table 2.

MMP-1 = experiment: UVB-induced MMP-1 protein expression in WS-1 cells, western blotting; type: cell-based, human
Description: Human skin fibroblast WS-1 cell line was obtained from Food Industry Research and Development Institute (Hsin-Chu, Taiwan). The WS-1 cells were maintained in a 37° C., 5% CO2 humidified incubator as monolayers in culture flasks. They were grown in 10% FBS-DMEM supplemented with 2 mM L-glutamine, 0.1 mM non-essential amino acids, 1% penicillin/streptomycin. For passage, near-confluent cells were sub-cultured by 0.25% trypsin/EDTA.
Skin tissues were homogenized in ice-cold lysis buffer containing 20 mM HEPES (pH 7.4), 150 mM NaCl, 1% SDS, 1 mM ethylenediamine tetraacetic acid (EDTA), 5 mM phenylmethanesulfonyl fluoride (PMSF), and 1 mM dithiothreitol (DTT), 1% Triton X-100, with freshly added protease inhibitor cocktail (Roche, Indianapolis, Ind.). Homogenates were then centrifuged at 12,000 g for 30 minutes at 4° C., and supernatants were then collected and stored at −70° C. Protein contents in lysates were determined using the Bradford assay. Whole cell lysates were prepared using the above lysis buffer. Aliquots of the lysates were then resolved on a SDS-PAGE and then electrotransferred to polyvinylidene difluoride (PVDF) membranes (Millipore, Bedford, Mass., USA) and processed for immunoblot analysis.
Antibodies used in the immunoblot study included anti-type I collagen 1A1 antibody (1:1000 dilution), anti-MMP-1 antibody (1:500 dilution) and anti-β-actin antibody (1:10000 dilution). Proteins of interest were detected using the appropriate IgG-HRP secondary antibody and ECL reagent (Amersham, Arlington Heights, Ill., USA). X-ray films were scanned on a Model GS-700 Imaging Densitometer (Bio-Rad Laboratories, Hercules, Calif.) and analyzed using Labworks 4.0 software. For quantification, blots from at least three independent experiments were used.
WS-1 were seeded on a six-well plate at a density of 1×10^5 cells per well and grown in the 10% FBS-DMEM growth medium for 24 hours and then incubated with 1% FBS-DMEM supplemented with or without 100 nM PEDF peptide for further 24 hours. The cells were washed twice with phosphate buffered saline (PBS) and exposed to UVB radiation covered with PBS. The UVB treatment was conducted in a cell culture hood by using a UVB lamp (model XL-1000B, Spectrolinker™ Inc.) at a final dose of 15 mJ/cm^2 for about 100 seconds. Cell viability was assayed using trapan blue exclusion assay (>95%). After UVB irradiation, PBS was replaced with 1% FBS-DMEM with or without PEDF peptide for further 48 hours and then protein extracts were assayed by western blotting for the expression of MMP-1 protein. Cells that were not subjected to UVB irradiation were used as control (normal). The expression level of MMP-1 was normalized with the expression level in the Vehicle/UVB group (set to 100%), and quantitative results are summarized in Table 6.

MMP-13 = experiment: UVB-induced MMP-13 mRNA expression in primary mouse dermal fibroblasts, RT-PCR; type: cell-based
Description: as §1
The total RNA was extracted from cells using the TRIzol (Invitrogen) and treated with RNase-free DNase I (Qiagen, Santa Clarita, Calif.) to remove genomic DNA and then purified with an RNA purification kit (Dynabeads; Invitrogen). 1 μg of total RNA retrieved from primary dermal fibroblast was reverse-transcribed into cDNA by 200 units of expand Reverse-Transcriptase (Roche, Mannheim, Germany) in 20 μl of reaction buffer containing 0.25 μg of random primers and 0.8 mM dNTPs at 42° C. for 1 hour. 2 μl of the cDNA was used for the PCR reaction as templates. PCR was performed in a 30 μl volume containing 15 μl of EconoTaq® PLUS GREEN 2× Master Mix (Lucigen® Corp.), 1 μM of each primer and 2 μl of template DNA. cDNA was synthesized in an 18-22 cycle amplification reaction (denaturation, 20 s, 94° C.; annealing, 30 s, 57° C.; and polymerization, 40 s, 72° C.). The number of cycles for the primer set was chosen to be in the linear range of amplification. The sequences of specific PCR primers were mouse MMP-13 (accession number: NM_008607) sense, […] (SEQ ID NO: 12); antisense, […] (SEQ ID NO: 13); PCR product: 201 bp; and mouse glyceraldehyde 3-phosphate dehydrogenase (GAPDH; accession number: M32599) sense, […] (SEQ ID NO: 14); and anti-sense, […] (SEQ ID NO: 15); PCR product: 223 bp.). The PCR products were electrophoresed in a 2% agarose gel containing ethidium bromide and visualized by UV illumination. The intensities of the PCR products were quantified densitometrically using a FUJI LAS-3000 system and Multi Gauge Ver. 1.01 software (Fujifilm, Tokyo, Japan).
Primary mouse dermal fibroblasts in passage 2 of monolayer cultures were incubated with 1% FBS-DMEM supplemented with or without 100 nM PEDF peptide for 24 hours, and then subjected to UVB irradiation as described above. After UVB irradiation, PBS was replaced with 1% FBS-DMEM with or without PEDF peptide for further 24 hours, and then cellular total RNAs were extracted for subsequent RT-PCR analysis. The expression level of MMP-13 mRNA was normalized with the expression level in the Vehicle/UVB group (set to 100%), and quantitative results are summarized in Table 7.

[2] = Transdermal delivery of FITC-conjugated 29-mer ointment with or without microneedle patch, fluorescent microscopy of skin; type: in vivo, C57BL/6 mice; details: 24 hours later
Description: The Fluorescein (FITC)-conjugated 29-mer peptide was used to investigate the in vivo transdermal delivery of the present PEDF peptides.
First, the dorsal hair of 8-wk-old male C57BL/6 mice were removed using a melted wax/rosin mixture (1:1) under general anesthesia. On the next day, the ointment containing the FITC-conjugated 29-mer peptide (25 μM) was applied onto the dorsal skin of the mice, and then a microneedle patch (3M™ Microchannel Skin System; provided from 3M Singapore) was gently pressed against the dorsal skin so that the microneedles penetrated less than 100 microns into the skin (the FITC-29 mer/MN group). As to the control group (FITC-29 mer/CT), the mice received the ointment without subsequent microneedle treatment. Twenty-four hours later, the skin was harvested, fixed, cryosectioned and examined by fluorescent microscopy.
The H&E stained section in the left panel of FIG. 1 highlights the epidermis and dermis of the specimen. The fluorescence images in the middle and right panels of FIG. 1 illustrate the distribution of FITC-conjugated 29-mer across the skin.

**Q.** Which “BrdU/Vimentin Labeling Index (%)” value [1] does the source give for “SLGAEQRTESIIHRALYYDLISSP [24-mer, synthetic peptide corresponding to residues 93-116 of human PEDF]” here?
**A.** 10.1 ± 1.9 %

**Q.** And the “proliferation relative to control medium” value ([1]; 50 nM peptide)?
**A.** about 5 fold

**Q.** What about the “MMP-1 Expression Level (%)” value (MMP-1; 100 nM peptide 24 h before and 48 h after UVB 15 mJ/cm^2, Vehicle/UVB set to 100%) of the same substance?
**A.** 48 ± 7.2 %

**Q.** What about the “MMP-1 protein level relative to vehicle/UVB group” value (MMP-1; pre-incubation with peptide, UVB) of the same substance?
**A.** about half

**Q.** And the “MMP-13 Expression Level (%)” value (MMP-13; 100 nM peptide 24 h before and 24 h after UVB 15 mJ/cm^2, mRNA, Vehicle/UVB set to 100%)?
**A.** 16.3 ± 1.5 %

**Q.** And the “effect on UVB-induced upregulation of MMP-13” value (MMP-13; cells pretreated with peptide, UVB)?
**A.** substantially reduced

**Q.** For “SLGAEHRTESVIHRALYYDL [Mo 20-mer, synthetic peptide derived from mouse PEDF]”, which “BrdU/Vimentin Labeling Index (%)” value [1] is on record?
**A.** 11.3 ± 1.6 %

**Q.** Which “distribution of fluorescein signal across the skin (delivery to dermis)” value ([2]; ointment 25 μM on dorsal skin plus microneedle patch (FITC-29 mer/MN)) does the source give for “FITC-conjugated 29-mer: Fluorescein (FITC)-conjugated 29-mer peptide used to investigate in vivo transdermal delivery (SLGAEQRTESIIHRALYYDLISSPDIHGT; also: FITC conjugated, site not given here)” here?
**A.** successfully delivered to the dermis

**Q.** What about the “distribution of fluorescein signal across the skin (delivery to dermis)” value ([2]; ointment 25 μM on dorsal skin without microneedle treatment (FITC-29 mer/CT)) of the same substance?
**A.** barely detectable in the dermis

**Q.** With “SLGAEHRTESVIHRALYYDLITNPDIHST [Mo 29-mer, synthetic peptide derived from mouse PEDF]” as the substance, how does the “BrdU/Vimentin Labeling Index (%)” value [1] read?
**A.** 11.1 ± 2.0 %
